Columns and labels:
[1] = target: T1, PPARγ / GST-DRIP205 (amino acids 527-970) (Mus musculus, UniProt P37238); experiment: GST pull-down assay, PPARγ with GST-DRIP205; assay type: binding; conditions: 20 μM AJA
T1 construct: made in house; host or cells: PPARγ1: reticulocyte lysate; GST-DRIP205: E. coli BL21, kept on glutathione-Sepharose beads
Description: The glutathione S-transferase (GST)-DRIP205 (amino acid 527-970) and GST-RAC3 RID (amino acid 613-752) fusion proteins were expressed in BL21 cells by induction with 0.1 mM isopropyl-β-D-thiogalactopyranoside (IPTG) at room temperature for 4 hours. The bacterial pellet was resuspended in STE buffer (150 mM NaCl, 10 mM Tris pH 8.0, 1 mM EDTA), containing 5 mM dithiothreitol (DTT), 1 mM phenylmethlsulfonyl fluoride (PMSF) and 1.5% Sarkosyl. The cell suspension was sonicated and centrifuged at 7400 rpm at 4° C. for 30 minutes. The supernatant was isolated and 0.02% Triton-X 100 was added, and the mixture was then incubated with 1 ml 50% slurry of glutathione-Sepharose beads on a rotator at 4° C. for 30 minutes. The beads were spun down at 3000 rpm for 10 minutes, the supernatant was removed, and the beads were suspended in 1 ml cold PBS.
Approximately 5 μg of GST-DRIP205 or GST-RAC3 bound on glutathione-Sepharose beads and 4 μl ^35S-methionine-labeled mPPARγ1 were incubated with the indicated concentrations of AJA, GW347845, or vehicle alone in H buffer (20 mM Hepes [pH 7.7], 75 mM KCl, 0.1 mM EDTA, 2.5 mM MgCl2, 0.05% NP40, 0.1 mM methionine, 1 mM DTT) containing 1 mg/ml bovine serum albumin (BSA) on a rotator at 4° C. overnight. After three washes with cold PBS, the bound protein was eluted in SDS sample buffer and boiled for 10 min before SDS-PAGE and autoradiography. […]

[2] = target: CB2 (Homo sapiens, UniProt P34972); conditions: Recht et al. 2001; cited from earlier work
Chain of CB2 (P34972 whole entry, species assumed): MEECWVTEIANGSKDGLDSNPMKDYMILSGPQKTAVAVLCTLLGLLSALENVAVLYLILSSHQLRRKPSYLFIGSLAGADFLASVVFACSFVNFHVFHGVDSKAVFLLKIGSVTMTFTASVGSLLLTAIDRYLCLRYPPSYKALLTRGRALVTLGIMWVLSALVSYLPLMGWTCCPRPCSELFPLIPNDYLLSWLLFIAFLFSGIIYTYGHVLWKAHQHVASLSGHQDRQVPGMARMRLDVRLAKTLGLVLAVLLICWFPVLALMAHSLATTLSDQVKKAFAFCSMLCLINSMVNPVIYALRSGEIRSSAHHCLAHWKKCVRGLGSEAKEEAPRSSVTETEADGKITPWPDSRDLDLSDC

[3] = target: T2, COX-2 (Homo sapiens, UniProt P35354); conditions: Zurier et al. 1998; cited from earlier work
T2 sequence (P35354 18-604): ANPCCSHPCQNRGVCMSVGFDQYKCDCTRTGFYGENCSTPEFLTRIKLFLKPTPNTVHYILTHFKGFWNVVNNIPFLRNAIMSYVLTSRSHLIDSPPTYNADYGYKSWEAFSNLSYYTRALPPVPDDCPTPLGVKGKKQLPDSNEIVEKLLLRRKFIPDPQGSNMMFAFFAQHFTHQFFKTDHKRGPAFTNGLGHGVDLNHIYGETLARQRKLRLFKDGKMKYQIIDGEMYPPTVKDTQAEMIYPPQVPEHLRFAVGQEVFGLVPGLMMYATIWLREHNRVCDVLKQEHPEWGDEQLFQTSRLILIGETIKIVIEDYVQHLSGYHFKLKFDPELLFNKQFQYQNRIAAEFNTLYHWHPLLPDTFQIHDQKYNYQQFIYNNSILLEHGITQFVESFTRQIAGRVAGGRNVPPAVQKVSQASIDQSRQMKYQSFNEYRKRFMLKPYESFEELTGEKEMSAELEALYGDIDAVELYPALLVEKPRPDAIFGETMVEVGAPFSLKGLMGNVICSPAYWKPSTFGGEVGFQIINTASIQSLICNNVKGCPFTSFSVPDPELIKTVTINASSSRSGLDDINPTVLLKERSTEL

T1 sequence (P37238 31-505): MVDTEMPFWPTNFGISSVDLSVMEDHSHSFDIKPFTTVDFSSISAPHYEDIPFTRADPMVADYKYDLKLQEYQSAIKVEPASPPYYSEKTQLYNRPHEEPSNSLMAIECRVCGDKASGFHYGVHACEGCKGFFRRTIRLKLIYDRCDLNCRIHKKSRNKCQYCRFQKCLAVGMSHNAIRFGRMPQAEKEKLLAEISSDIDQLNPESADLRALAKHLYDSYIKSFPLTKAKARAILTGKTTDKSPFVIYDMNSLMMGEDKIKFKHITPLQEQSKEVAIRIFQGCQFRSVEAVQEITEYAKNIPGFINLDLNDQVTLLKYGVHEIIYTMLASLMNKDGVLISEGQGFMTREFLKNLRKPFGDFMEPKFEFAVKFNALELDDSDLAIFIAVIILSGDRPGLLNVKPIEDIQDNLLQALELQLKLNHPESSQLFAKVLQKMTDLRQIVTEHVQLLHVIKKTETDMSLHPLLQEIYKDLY
T1 sequence (Q15648 527-970 partner limits assumed): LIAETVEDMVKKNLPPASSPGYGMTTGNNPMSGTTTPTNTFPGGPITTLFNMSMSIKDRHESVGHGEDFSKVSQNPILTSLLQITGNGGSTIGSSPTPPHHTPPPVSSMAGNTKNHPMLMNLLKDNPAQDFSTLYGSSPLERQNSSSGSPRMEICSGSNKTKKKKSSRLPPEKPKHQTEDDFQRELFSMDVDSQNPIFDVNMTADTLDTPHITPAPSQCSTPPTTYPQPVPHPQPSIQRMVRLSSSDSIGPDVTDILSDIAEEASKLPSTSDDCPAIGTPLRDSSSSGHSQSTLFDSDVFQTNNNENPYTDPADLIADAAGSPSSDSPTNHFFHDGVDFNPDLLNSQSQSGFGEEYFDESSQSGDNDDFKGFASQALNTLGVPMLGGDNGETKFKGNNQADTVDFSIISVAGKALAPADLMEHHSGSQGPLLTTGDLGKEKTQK

## CCCCCCC(C)(C)c1cc(O)c2c(c1)OC(C)(C)[C@@H]1CC=C(C(=O)O)C[C@@H]21 [AJA, dimethylheptyl-THC-11-oic acid]
[1]
  binding of PPARγ to GST-DRIP205: increased binding
[2]
  affinity to CB2: modest affinity
[3]
  concentration range suppressing COX-2 activity: 1 to 10 µM

— patent publication US20040186166A1, “Cannabinoid analogs as peroxisome proliferator activated nuclear receptor gamma activators” (priority 2002, published 2004)
